# Residues, ends and D or L forms follow the SMILES beside them.
# Experiments:
# defibrinated sheep blood = experiment: Hemolysis assay; assay type: cell-based; conditions: for Hemo/MIC = (< 20% Hemo) / MIC Ec: MICs >50 µM treated as 100 µM, >200 µM treated as 200 µM
# E. coli (ATCC 25922) = experiment: Antimicrobial susceptibility testing; assay type: cell-based, Escherichia coli; conditions: summary values
molecule,measurement,setting,value
CC[C@H](C)[C@H](NC(=O)[C@H](CCCCN)NC(=O)[C@H](CCC(=O)O)NC(=O)[C@H](CCCCN)NC(=O)[C@H](CO)NC(=O)[C@H](CCCCN)NC(=O)[C@H](CCCNC(=N)N)NC(=O)[C@H](Cc1ccccc1)NC(=O)[C@H](Cc1ccccc1)NC(=O)[C@H](CC(=O)O)NC(=O)CN)C(=O)NCC(=O)N[C@@H](CCCCN)C(=O)N[C@@H](CCC(=O)O)C(=O)N[C@@H](Cc1ccccc1)C(=O)N[C@@H](CCCCN)C(=O)N[C@@H](CCCNC(=N)N)C(=O)N[C@H](C(=O)N[C@H](C(=O)N[C@@H](CCC(N)=O)C(=O)N[C@@H](CCCNC(=N)N)C(=O)N[C@H](C(=O)N[C@@H](CCCCN)C(=O)O)[C@@H](C)CC)C(C)C)[C@@H](C)CC [(#4) GD-23] (H-GDFFRKSKEKIGKEFKRIVQRIK-OH; N-terminus and C-terminus assumed),Fold Δ = (Hemo/MIC of compound) / (Hemo/MIC of LL-37),defibrinated sheep blood; Figure 1B,64
same,Fold Δ = (Hemo/MIC of compound) / (Hemo/MIC of LL-37),defibrinated sheep blood; Figure 6C,32
same,Hemo/MIC = (< 20% Hemo) / MIC Ec,defibrinated sheep blood; Figure 6C,32
CC[C@H](C)[C@H](NC(=O)[C@H](CCCNC(=N)N)NC(=O)[C@H](CCC(N)=O)NC(=O)[C@@H](NC(=O)[C@@H](NC(=O)[C@H](CCCNC(=N)N)NC(=O)[C@@H](N)CCCCN)[C@@H](C)CC)C(C)C)C(=O)N[C@@H](CCCCN)C(=O)N[C@@H](CC(=O)O)C(=O)N[C@@H](Cc1ccccc1)C(=O)N[C@@H](CC(C)C)C(=O)N[C@@H](CCCNC(=N)N)C(=O)O [(#10) KR-12] (H-KRIVQRIKDFLR-OH),MIC against E. coli as stated in the text and in the table of contents graphic,E. coli (ATCC 25922),> 50 µM
CC[C@H](C)[C@H](NC(=O)[C@H](CCCNC(=N)N)NC(=O)[C@H](CCC(N)=O)NC(=O)[C@@H](NC(=O)[C@@H](NC(=O)[C@H](CCCNC(=N)N)NC(=O)[C@H](CCCCN)NC(=O)[C@H](Cc1ccccc1)NC(=O)[C@@H](N)Cc1ccccc1)[C@@H](C)CC)C(C)C)C(=O)N[C@@H](CCCCN)C(=O)N[C@@H](CC(=O)O)C(=O)N[C@@H](Cc1ccccc1)C(=O)N[C@@H](CC(C)C)C(=O)N[C@@H](CCCNC(=N)N)C(=O)O [(#18) FF-14] (H-FFKRIVQRIKDFLR-OH),MIC against E. coli as stated in the text and in the table of contents graphic,E. coli (ATCC 25922),3.1 µM
CC[C@H](C)[C@H](NC(=O)[C@H](CCCCN)NC(=O)[C@H](CCC(=O)O)NC(=O)[C@H](CCCCN)NC(=O)[C@H](CO)NC(=O)[C@H](CCCCN)NC(=O)[C@H](CCCNC(=N)N)NC(=O)[C@H](Cc1ccccc1)NC(=O)[C@H](Cc1ccccc1)NC(=O)[C@H](CC(=O)O)NC(=O)CNC(=O)[C@H](CC(C)C)NC(=O)[C@@H](N)CC(C)C)C(=O)NCC(=O)N[C@@H](CCCCN)C(=O)N[C@@H](Cc1ccccc1)C(=O)N[C@@H](Cc1ccccc1)C(=O)N[C@@H](CCCCN)C(=O)N[C@@H](CCCNC(=N)N)C(=O)N[C@H](C(=O)N[C@H](C(=O)N[C@@H](CCC(N)=O)C(=O)N[C@@H](CCCNC(=N)N)C(=O)N[C@H](C(=O)N[C@@H](CCCCN)C(=O)O)[C@@H](C)CC)C(C)C)[C@@H](C)CC [(#49) LL-25 (FF)] (H-LLGDFFRKSKEKIGKFFKRIVQRIK-OH; N-terminus assumed),Fold Δ = (Hemo/MIC of compound) / (Hemo/MIC of LL-37),defibrinated sheep blood; Figure 6C,4
same,Hemo/MIC = (< 20% Hemo) / MIC Ec,defibrinated sheep blood; Figure 6C,4
CC[C@H](C)[C@H](NC(=O)[C@H](CCCCN)NC(=O)[C@H](CCC(=O)O)NC(=O)[C@H](CCCCN)NC(=O)[C@H](CO)NC(=O)[C@H](CCCCN)NC(=O)[C@H](CCCNC(=N)N)NC(=O)[C@H](Cc1ccccc1)NC(=O)[C@H](Cc1ccccc1)NC(=O)[C@H](CC(=O)O)NC(=O)CN)C(=O)NCC(=O)N[C@@H](CCCCN)C(=O)N[C@@H](Cc1ccccc1)C(=O)N[C@@H](Cc1ccccc1)C(=O)N[C@@H](CCCCN)C(=O)N[C@@H](CCCNC(=N)N)C(=O)N[C@H](C(=O)N[C@H](C(=O)N[C@@H](CCC(N)=O)C(=O)N[C@@H](CCCNC(=N)N)C(=O)N[C@H](C(=O)N[C@@H](CCCCN)C(=O)O)[C@@H](C)CC)C(C)C)[C@@H](C)CC [(#53) GD-23 (FF)] (H-GDFFRKSKEKIGKFFKRIVQRIK-OH; N-terminus and C-terminus assumed),Fold Δ = (Hemo/MIC of compound) / (Hemo/MIC of LL-37),defibrinated sheep blood; Figure 6C,16
same,Hemo/MIC = (< 20% Hemo) / MIC Ec,defibrinated sheep blood; Figure 6C,16
Colistin [reference compound],Fold Δ = (Hemo/MIC of compound) / (Hemo/MIC of LL-37),defibrinated sheep blood; Figure 1B,512
same,Fold Δ = (Hemo/MIC of compound) / (Hemo/MIC of LL-37),defibrinated sheep blood; Figure 2B,256
same,Hemo/MIC = (< 20% Hemo) / MIC Ec,defibrinated sheep blood; Figure 2B,64
same,Hemo/MIC = (< 20% Hemo) / MIC Ec,defibrinated sheep blood; Figure 4B,128
